The results in this text go back to the Kinase Knowledgebase extract (Sharma et al. 2016).

SMILES strings stand for the structures.

The target of the first assay is MAPK14 (human) (UniProt Q16539). Kind of assay: Inhibition of MAPK14 Kinase Activity.
Chain of MAPK14 (human) (Q16539 whole entry, looked up): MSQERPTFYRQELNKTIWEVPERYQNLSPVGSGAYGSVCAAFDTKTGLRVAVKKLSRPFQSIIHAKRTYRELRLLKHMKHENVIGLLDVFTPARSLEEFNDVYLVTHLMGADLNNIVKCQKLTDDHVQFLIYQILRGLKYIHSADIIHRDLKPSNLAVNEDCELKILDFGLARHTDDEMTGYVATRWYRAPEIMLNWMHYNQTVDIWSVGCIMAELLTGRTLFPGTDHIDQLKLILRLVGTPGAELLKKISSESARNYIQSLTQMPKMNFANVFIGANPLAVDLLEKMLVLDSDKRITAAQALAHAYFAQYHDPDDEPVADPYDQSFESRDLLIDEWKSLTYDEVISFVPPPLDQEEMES
Conditions: not given
Usually IC50 stands for the midpoint of a concentration-inhibition curve. Compound `CC(C)(C)c1cc(C(=O)N2CCNC(=O)CC2)c(NC(=O)Nc2cccc(Cl)c2Cl)[nH]1` returned an IC50 below 5 µM.
Compound `COC(=O)c1ccc(NC(=O)Nc2sc(C(C)(C)C)cc2C(=O)N2CCNC(=O)CC2)c(Cl)c1Cl` returned an IC50 below 5 µM.
For the compound `CC(C)(C)c1cc(C(=O)N2CCNC(=O)C2)c(NC(=O)Nc2cccc(Cl)c2Cl)s1`, the half-maximal inhibitory concentration (IC50) was below 5 µM.
`Cc1cccc(NC(=O)Nc2sc(C(C)(C)C)cc2C(=O)N2CCNC(=O)C2(C)C)c1Cl` had an IC50 below 5 µM.
The same measure, in the same setting: the figure for `CC(C)(C)c1cc(C(=O)N2CCNC(=O)C2)c(NC(=O)Nc2cccc3c2OCO3)s1` is below 5 µM; for `CNC(=O)CN1CCN(C(=O)c2cc(C(C)(C)C)sc2NC(=O)Nc2cccc(Cl)c2Cl)C(C)(C)C1=O` it is below 5 µM; for `CC(C)(C)c1cc(C(=O)NCC(F)(F)F)c(NC(=O)Nc2cccc(Cl)c2Cl)s1` it is below 5 µM.
The same measure, in the same setting: the figure for `CC(C)(C)c1nc(C(=O)N2CCC(=O)N(CCC(N)=O)CC2)c(NC(=O)Nc2cccc(Cl)c2Cl)s1` is below 5 µM.
Still for that read-out and setting: the figure for `CN(C)CCNC(=O)CN1CCN(C(=O)c2sc(C(C)(C)C)cc2NC(=O)Nc2ccnc(Cl)c2Cl)C(C)(C)C1=O` is below 5 µM; for `CC(C)(C)c1cc(C(=O)N2CCN(CC(=O)NCC(O)CO)C(=O)C2(C)C)c(NC(=O)Nc2cccc(Cl)c2Cl)s1` (stereo not given) it is below 5 µM.
In turn, `CC(C)(C)c1cc(C(=O)N2CCNC(=O)CC2)c(NC(=O)Nc2c(Cl)cncc2Cl)s1` showed an IC50 below 5 µM.
Same read-out and setting: the figure for `CC1(C)CN(C(=O)c2cc(C(C)(C)C)sc2NC(=O)Nc2cccc(Cl)c2Cl)CCNC1=O` is below 5 µM; for `CC(C)(C)c1cc(NC(=O)Nc2cccc(Cl)c2Cl)c(C(=O)N2CCNC(=O)C2(C)C)o1` it is below 5 µM.
The same measure, in the same setting: the figure for `CC(C)(C)c1cc(C(=O)N2CCS(=O)(=O)CC2)c(NC(=O)Cc2cccc(Cl)c2Cl)s1` is below 5 µM; for `CCC1(C)C(=O)N(CCN(C)C)CCN1C(=O)c1cc(C(C)(C)C)sc1NC(=O)Nc1ccc(F)c(Cl)c1Cl` (stereo not given) it is below 5 µM; for `CN(C)CCN1CCN(C(=O)c2cc(C(C)(C)C)sc2NC(=O)Nc2ccc(F)c(F)c2Cl)C(C)(C)C1=O` it is below 5 µM.
Compound `CC(C)(C)c1cc(C(=O)N2CCNC(=O)C2(C)C)c(NC(=O)Nc2cccc3c2OCO3)s1` gave an IC50 below 5 µM.
The same measure, in the same setting: the figure for `CC(C)(C)c1cc(C(=O)N2CCNC(=O)CC2)c(NC(=O)Nc2ccccc2OC(F)(F)F)s1` is below 5 µM.
On the same count and under the same terms, the figure for `Cc1noc(CC2(C)C(=O)NCCN2C(=O)c2cc(C(C)(C)C)sc2NC(=O)Nc2ccc(F)c(Cl)c2Cl)n1` (stereo not given) is below 5 µM.
Take `COc1ccc(Cl)c(NC(=O)Nc2cc(C(C)(C)C)sc2C(=O)N2CCNC(=O)C2(C)C)c1`: the 50% inhibitory concentration (IC50) is below 5 µM.
Same read-out and setting: the figure for `CC(C)(C)c1cc(C(=O)N2CCS(=O)(=O)CC2)c(NC(=O)Nc2cccc3c2OCO3)s1` is below 5 µM; for `Cc1noc(CN2CCN(C(=O)c3cc(C(C)(C)C)sc3NC(=O)Nc3cccc(Cl)c3Cl)C(C)(CC(N)=O)C2=O)n1` (stereo not given) it is below 5 µM; for `CCC1(C)C(=O)N(CC(=O)NCCN(C)C)CCN1C(=O)c1cc(C(C)(C)C)sc1NC(=O)Nc1ccccc1C(F)(F)F` (stereo not given) it is below 5 µM.
The same measure, in the same setting: the figure for `CON(C)C(=O)CN1CCN(C(=O)c2cc(C(C)(C)C)sc2NC(=O)Nc2ccc(F)c(F)c2Cl)CCC1=O` is below 5 µM.
Regarding `CN(C)CCNC(=O)CN1CCN(C(=O)c2cc(C(C)(C)C)sc2NC(=O)Nc2ccc(F)c(Cl)c2Cl)C(C)(C)C1=O`, the half-maximal inhibitory concentration (IC50) is below 5 µM.

Still in this assay, the particulars now being: concentration not given here.
By inhibition is commonly meant the share of the control response that was lost under treatment. Low values mean little suppression, high ones strong suppression. As to `CC(C)(C)c1cc(C(=O)N2CCNC(=O)CC2)c(NC(=O)Nc2cc(Cl)cc(Cl)c2)s1`, the inhibition lay within 76 to 100%.
On the same count and under the same terms, the figure for `CC1(C)OCC(CN2CCN(C(=O)c3cc(C(C)(C)C)sc3NC(=O)Nc3cccc(Cl)c3Cl)CCC2=O)O1` (stereo not given) is 76 to 100%; for `CC(C)(C)c1cc(C(=O)N2CCNC(=O)CC2)c(NC(=O)Nc2ccc3ncoc3c2)s1` it is 76 to 100%; for `CN(C)CCN1CCN(C(=O)c2cc(C(C)(C)C)sc2NC(=O)Nc2cccc(Cl)c2Cl)CCC1=O` it is 76 to 100%.
The same measure, in the same setting: the figure for `CC(C)(C)c1cc(C(=O)N2CCNS(=O)(=O)CC2)c(NC(=O)NC(C)(C)c2ccccc2)s1` is 51 to 75%.
